Some test systems named below: NCI-H460; MDA-MB-231; HCC 2998; UACC-62; NCI-H23; RXF 393; A498; SW-620; LOX IMVI; OVCAR-4; M14; HCT-116; UACC-257; SNB-75; BT-549; SF-539; OVCAR-3; OVCAR-5; MDA-N.
Holding throughout (test): DTP human tumour cell line panel, 48 h

Molecules are shown by their SMILES. Several values for one entry are separate records, joined by “and”; a condition that tells them apart may be missing. Equal values may be shown once.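 Growth conditions: 96-well plates. Treatment: test compound, 48 hours, 5 concentrations. Analysis: linear interpolation between bracketing concentrations; unreached endpoints set to highest concentration. The concentration for 50% growth inhibition is given as GI50.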 Activity calls are given as the source filed them. No stated cut-off is given here; in the data, active = GI50 up to about 1.1 µM and inactive = higher.

One may read the GI50 as the concentration at which growth is held to half of that of the control. `CCn1ncc(Oc2c(Cl)cc(N)cc2Cl)c(Cl)c1=O`: the GI50 in the experiment with NCI-H460 is 32.2 µM (inactive); in the experiment with MDA-MB-231, 54.6 µM (inactive); with HCC 2998 it was 34.7 µM (inactive); in the experiment on UACC-62, 39.5 µM (inactive); in the experiment with NCI-H23 it was 30.5 µM (inactive); in the experiment with RXF 393, 29 µM (inactive). Also, the GI50 in the experiment on A498 was 47.3 µM (inactive); in the experiment on SW-620 it was 37.2 µM (inactive); with LOX IMVI, 32.9 µM (inactive); in the experiment on OVCAR-4, 54 µM (inactive); in the experiment on M14 it was 30.1 µM (inactive); in the experiment on HCT-116, 30.4 µM (inactive). Also, the GI50 with UACC-257 was 31.6 µM (inactive); with SNB-75 it was 51.5 µM (inactive); in the experiment on BT-549, 25.6 µM (inactive); in the experiment with SF-539, 31.6 µM (inactive); with OVCAR-3, 17.2 µM (inactive); in the experiment on OVCAR-5, 43.9 µM (inactive). In addition, in the experiment on MDA-N, the GI50 is 29.9 µM (inactive).

`Cc1ccc2cccc(OC(=O)c3cc4c(cc3Cl)Sc3nccn3S4(=O)=O)c2n1`: the GI50 is 3.13 µM (inactive) in the experiment with NCI-H460; 14.1 µM (inactive) in the experiment with MDA-MB-231; 5.75 µM (inactive) with HCC 2998; 14.7 µM (inactive) with UACC-62; 16.3 µM (inactive) with NCI-H23; 5.16 µM (inactive) in the experiment on RXF 393. Further, the GI50 with A498 was 17.7 µM (inactive); with SW-620, 9.71 µM (inactive); with LOX IMVI, 7.13 µM (inactive); in the experiment with OVCAR-4 it was 11.3 µM (inactive); in the experiment on M14 it was 8.79 µM (inactive); in the experiment with HCT-116, 6.53 µM (inactive). Besides, the GI50 in the experiment on UACC-257 is 12.2 µM (inactive); with SNB-75 it was 9.66 µM (inactive); in the experiment on BT-549, 17.4 µM (inactive); in the experiment with SF-539, 5.61 µM (inactive); with OVCAR-3, 2.75 µM (inactive); in the experiment on OVCAR-5, 23.8 µM (inactive). The GI50 with MDA-N is 14.4 µM (inactive).

Regarding `C(=C(c1ccc(OC2CCCCO2)cc1)c1ccc(OC2CCCCO2)cc1)c1ccccc1` (stereo not given), the concentration for 50% growth inhibition (GI50) in the experiment on NCI-H460 is 0.395 µM (active); in the experiment on MDA-MB-231 it was 0.361 µM (active); with HCC 2998, 0.723 µM (active); in the experiment on UACC-62, 0.547 µM (active); with NCI-H23, 0.546 µM (active); with RXF 393, 1.03 µM (active). Further, the GI50 in the experiment on A498 is 1.31 µM (inactive); in the experiment on SW-620 it was 0.54 µM (active); in the experiment with LOX IMVI, 0.232 µM (active); with OVCAR-4, 0.392 µM (active); in the experiment with M14, 0.697 µM (active); with HCT-116, 0.412 µM (active). Also, the 50% growth inhibitory concentration (GI50) in the experiment on UACC-257 was 0.378 µM (active); with SNB-75, 0.605 µM (active); with BT-549 it was 0.543 µM (active); with SF-539, 1.53 µM (inactive); in the experiment with OVCAR-3, 0.577 µM (active); in the experiment with OVCAR-5 it was 1.06 µM (active). In addition, the concentration for 50% growth inhibition (GI50) in the experiment on MDA-N was 0.634 µM (active).

For `O=C(O)C(SC1=NC(=O)C2(NN1)c1ccccc1-c1ccccc12)SC1=NC(=O)C2(NN1)c1ccccc1-c1ccccc12`, the GI50 in the experiment with NCI-H460, in the experiment on MDA-MB-231, in the experiment on HCC 2998, in the experiment with UACC-62, in the experiment on NCI-H23 and with RXF 393 was > 10 µM (inactive) in each case. For the same molecule, the GI50 in the experiment on A498 was > 10 µM (inactive); in the experiment with SW-620 it was > 10 µM (inactive); in the experiment with LOX IMVI it was 9.02 µM (inactive); in the experiment with OVCAR-4 it was > 10 µM (inactive); in the experiment with M14, > 10 µM (inactive); with HCT-116, > 10 µM (inactive). The GI50 was > 10 µM (inactive) in the experiment with UACC-257; 2.74 µM (inactive) in the experiment with SNB-75; > 10 µM (inactive) in the experiment with BT-549; > 10 µM (inactive) in the experiment on SF-539; > 10 µM (inactive) in the experiment on OVCAR-3; > 10 µM (inactive) in the experiment on OVCAR-5. Moreover, the GI50 with MDA-N was > 10 µM (inactive).

In the case of `O=C(/C=C/c1ccc(O)c(O)c1)NC(CO)C(=O)O` (stereo not given), the GI50 in the experiment with NCI-H460, in the experiment with MDA-MB-231, in the experiment on HCC 2998, in the experiment with UACC-62, in the experiment with NCI-H23 and with RXF 393 was > 100 µM (inactive) each time. The GI50 in the experiment on A498, in the experiment on SW-620, in the experiment with LOX IMVI, in the experiment on OVCAR-4, with M14 and with HCT-116 was > 100 µM (inactive) each time. Also, the GI50 in the experiment with UACC-257, in the experiment with SNB-75, in the experiment on BT-549, with SF-539, with OVCAR-3 and in the experiment with OVCAR-5 was > 100 µM (inactive) in each case. Besides, the GI50 in the experiment on MDA-N is > 100 µM (inactive).

In the case of `Cc1cn(C2CCC(CO)(CF)O2)c(=O)[nH]c1=O` (stereo not given), the GI50 with NCI-H460, in the experiment with MDA-MB-231, with HCC 2998, with UACC-62, with NCI-H23 and with RXF 393 was > 100 µM (inactive) in each case. Besides, the GI50 with A498, with SW-620, in the experiment on LOX IMVI, with OVCAR-4, in the experiment with M14 and in the experiment on HCT-116 was > 100 µM (inactive) in each case. In addition, the GI50 in the experiment with UACC-257 was > 100 µM (inactive); with SNB-75, > 100 µM (inactive) and 96.6 µM (inactive); with BT-549, > 100 µM (inactive); in the experiment with SF-539, > 100 µM (inactive); in the experiment with OVCAR-3 it was > 100 µM (inactive); with OVCAR-5 it was > 100 µM (inactive). Also, the GI50 with MDA-N is > 100 µM (inactive).

Regarding `CC(=O)c1cccc(NC(=O)C(=O)C(c2cnc3ccc([N+](=O)[O-])cc3n2)[N+](=O)[O-])c1` (stereo not given), the GI50 was > 100 µM (inactive) in the experiment with NCI-H460; > 100 µM (inactive) with MDA-MB-231; 69.8 µM (inactive) in the experiment with HCC 2998; > 100 µM (inactive) in the experiment with UACC-62; > 100 µM (inactive) in the experiment with NCI-H23; 96.6 µM (inactive) in the experiment on RXF 393. Further, the GI50 was > 100 µM (inactive) in the experiment with A498; 52.2 µM (inactive) with SW-620; > 100 µM (inactive) in the experiment on LOX IMVI; > 100 µM (inactive) in the experiment with OVCAR-4; 69 µM (inactive) in the experiment on M14; 58.3 µM (inactive) with HCT-116. In addition, the GI50 with UACC-257 was > 100 µM (inactive); in the experiment with SNB-75, > 100 µM (inactive); in the experiment with BT-549, 53 µM (inactive); in the experiment on SF-539, > 100 µM (inactive); in the experiment with OVCAR-3 it was > 100 µM (inactive); in the experiment with OVCAR-5, > 100 µM (inactive). Further, the GI50 in the experiment on MDA-N is > 100 µM (inactive).

As for `O=C1C=C(NCCOCCO)C(=O)c2c(O)ccc(O)c21`, the GI50 in the experiment with NCI-H460 was 29.2 µM (inactive); in the experiment with MDA-MB-231 it was 33.2 µM (inactive); in the experiment with HCC 2998, 17.5 µM (inactive); in the experiment on UACC-62, 14.5 µM (inactive); with NCI-H23, 23.4 µM (inactive); in the experiment on RXF 393, 33.3 µM (inactive). For the same molecule, the GI50 with A498 was > 100 µM (inactive); in the experiment on SW-620, 18.1 µM (inactive); in the experiment on LOX IMVI it was 15.6 µM (inactive); in the experiment on OVCAR-4 it was 18 µM (inactive); in the experiment on M14, 22.5 µM (inactive); in the experiment on HCT-116 it was 22.5 µM (inactive). Besides, the GI50 is 20.8 µM (inactive) in the experiment with UACC-257; 61.7 µM (inactive) in the experiment with SNB-75; > 100 µM (inactive) in the experiment on BT-549; 24 µM (inactive) with SF-539; 23.6 µM (inactive) with OVCAR-3; > 100 µM (inactive) in the experiment with OVCAR-5. The GI50 in the experiment with MDA-N is 17.3 µM (inactive).

Take `COC(=O)/C(=N\N)C(C(=O)C(=O)Nc1cc(Cl)ccc1Cl)c1nc2ccc([N+](=O)[O-])cc2nc1O` (stereo not given): the GI50 in the experiment on NCI-H460, in the experiment with MDA-MB-231, with HCC 2998, in the experiment with UACC-62, in the experiment with NCI-H23 and in the experiment with RXF 393 was > 100 µM (inactive) in each case. The GI50 with A498, with SW-620, in the experiment with LOX IMVI, in the experiment with OVCAR-4, with M14 and in the experiment with HCT-116 was > 100 µM (inactive) throughout. Further, the GI50 with UACC-257 was > 100 µM (inactive); in the experiment with SNB-75, > 100 µM (inactive); in the experiment on BT-549 it was > 100 µM (inactive); in the experiment on SF-539 it was > 100 µM (inactive); with OVCAR-3, 74.3 µM (inactive); with OVCAR-5 it was > 100 µM (inactive). In addition, in the experiment on MDA-N, the GI50 is > 100 µM (inactive).

As for `COc1cccc(/C=C\c2ccc(O)cc2)c1`, the GI50 was 4.1 µM (inactive) in the experiment with NCI-H460; 30.1 µM (inactive) with MDA-MB-231; 23.8 µM (inactive) in the experiment with HCC 2998; 10.2 µM (inactive) with UACC-62; 15.1 µM (inactive) in the experiment with NCI-H23; 19.5 µM (inactive) with RXF 393. The GI50 in the experiment on A498 was 28.3 µM (inactive); in the experiment with SW-620 it was 15.2 µM (inactive); in the experiment with LOX IMVI it was 14.9 µM (inactive); in the experiment with OVCAR-4, 23.7 µM (inactive); with M14, 17.5 µM (inactive); with HCT-116, 22.7 µM (inactive). For the same molecule, the GI50 in the experiment with UACC-257 was 26.7 µM (inactive); with SNB-75, 24 µM (inactive); in the experiment on BT-549 it was 17.5 µM (inactive); with SF-539 it was 13.7 µM (inactive); in the experiment with OVCAR-3 it was 16.8 µM (inactive); in the experiment with OVCAR-5, 62.8 µM (inactive). Further, the GI50 in the experiment on MDA-N is 21.1 µM (inactive).

The values above are taken from ChEMBL document CHEMBL1201862, “PubChem BioAssay data set” (2004).
